In US12534457B2, “Heteroaryl derivative compounds, and uses thereof” (Voronoi Inc., priority 2021, dated 2026) one finds GI50 data, which are given here for 27 compounds.

Structures are written as SMILES.

The subject of this assay is Ba/F3 cells expressing EGFR Del19/C797S (EGFR DC). Nature of the assay: Proliferation inhibitory activity, Ba/F3 cells expressing EGFR Del19/C797S (CellTiter-Glo). Particulars: Mus musculus, BaF3, 72 hours of compound treatment. The class given is cell-based. How it is done:
The following experiments were performed to evaluate the inhibitory activity of the compounds according to the present disclosure on Ba/F3 proliferation expressing EGFR C797S, L861Q, G719A, S768I, L718Q, and/or G724S mutations.
For Ba/F3 cells, RPMI-1640 containing 10% FBS and 5 ng/ml IL-3 (R&D Systems) was used. Transduced Ba/F3 cells were cultured after adding 1 μg/ml puromycin (Invitrogen) to the same medium.
At 24 hours before treatment with the compounds, 3000 to 5000 cells were aliquoted into each well of a white clear bottom 96 well plate (Corning). The compounds were diluted in dimethyl sulfoxide (3 times dilution, 12 concentrations in total), and injected in an amount of 1 μl so that the final concentration was 0.2 nM to 5 uM. For measurement of living cells, after 72 hours of compound treatment, the cells were stored at room temperature for 10 min using CellTiter-Glo luminescentcell-viability reagent (Promega), and then luminescence intensity was measured using a reader (SynergyNeo, Biotek). Each test was repeated three times. Result values were calculated as the cell growth rate (%) compared to the control. The graphs were created using GraphPad Prism version 8.3.0 program and the GI50 values were calculated.
With `COc1cc(N2CCC(N3CCN(C)CC3)CC2)ccc1Nc1cc(N2OCC[C@@H]2c2ccc3ccccc3c2)ncn1` [Example 89, (R)—N-(2-methoxy-4-(4-(4-methylpiperazin-1-yl)piperidin-1-yl)phenyl)-6-(3-(naphthalen-2-yl)isoxazolidin-2-yl)pyrimidin-4-amine], the GI50 was in the range of 0.05 to 0.5 µM.
For the compound `COc1cc(N2CCC(N3CCN(C)CC3)CC2)ccc1Nc1cc(N2OCC[C@@H]2c2ccc(F)c(F)c2)ncn1` [Example 90, (R)-6-(3-(3,4-difluorophenyl)isoxazolidin-2-yl)-N-(2-methoxy-4-(4-(4-methylpiperazin-1-yl)piperidin-1-yl)phenyl)pyrimidin-4-amine], the GI50 was under 0.05 µM.
`CCc1cc(Nc2cc(N3OCC[C@@H]3c3ccc(F)cc3)ncn2)c(OC)cc1N1CCC(N2CCN(C)CC2)CC1` [Example 91, (R)—N-(5-ethyl-2-methoxy-4-(4-(4-methylpiperazin-1-yl)piperidin-1-yl)phenyl)-6-(3-(4-fluorophenyl)isoxazolidin-2-yl)pyrimidin-4-amine]: the 50% growth inhibitory concentration (GI50) is under 0.05 µM.
For the compound `CCc1cc(Nc2cc(N3OCC[C@@H]3c3cccc(F)c3F)ncn2)c(OC)cc1N1CCC(N2CCN(C)CC2)CC1` [Example 92, (R)-6-(3-(2,3-difluorophenyl)isoxazolidin-2-yl)-N-(5-ethyl-2-methoxy-4-(4-(4-methylpiperazin-1-yl)piperidin-1-yl)phenyl)pyrimidin-4-amine], the 50% growth inhibitory concentration (GI50) was under 0.05 µM.
In the case of `CCc1cc(Nc2cc(N3OCC[C@@H]3c3ccc(F)cc3F)ncn2)c(OC)cc1N1CCC(N2CCN(C)CC2)CC1` [Example 93, (R)-6-(3-(2,4-difluorophenyl)isoxazolidin-2-yl)-N-(5-ethyl-2-methoxy-4-(4-(4-methylpiperazin-1-yl)piperidin-1-yl)phenyl)pyrimidin-4-amine], the 50% growth inhibitory concentration (GI50) was under 0.05 µM.
In the case of `CCc1cc(Nc2cc(N3OCC[C@@H]3c3cc(F)ccc3F)ncn2)c(OC)cc1N1CCC(N2CCN(C)CC2)CC1` [Example 94, (R)-6-(3-(2,5-difluorophenyl)isoxazolidin-2-yl)-N-(5-ethyl-2-methoxy-4-(4-(4-methylpiperazin-1-yl)piperidin-1-yl)phenyl)pyrimidin-4-amine] it was under 0.05 µM.
For `COc1cc(Nc2cc(N3OCC[C@@H]3c3ccc(F)cc3F)ncn2)ccc1N1CCC(N2CCN(C)CC2)CC1` [Example 95, (R)-6-(3-(2,4-difluorophenyl)isoxazolidin-2-yl)-N-(3-methoxy-4-(4-(4-methylpiperazin-1-yl)piperidin-1-yl)phenyl)pyrimidin-4-amine], the GI50 is under 0.05 µM.
Take `COc1cc(Nc2cc(N3OCC[C@@H]3c3ccc(F)cc3)ncn2)ccc1N1CCC(N2CCN(C)CC2)CC1` [Example 96, (R)-6-(3-(4-fluorophenyl)isoxazolidin-2-yl)-N-(3-methoxy-4-(4-(4-methylpiperazin-1-yl)piperidin-1-yl)phenyl)pyrimidin-4-amine]: the 50% growth inhibitory concentration (GI50) was under 0.05 µM.
For the compound `COc1cc(N2CCC(N3C[C@H]4C[C@@H]3CO4)CC2)ccc1Nc1cc(N2OCC[C@@H]2c2ccccc2)ncn1` [Example 97, N-(4-(4-((1R,4R)-2-oxa-5-azabicyclo[2.2.1]heptan-5-yl)piperidin-1-yl)-2-methoxyphenyl)-6-((R)-3-phenylisoxazolidin-2-yl)pyrimidin-4-amine], the 50% growth inhibitory concentration (GI50) was under 0.05 µM.
For the compound `CCN(CC)C1CCN(c2ccc(Nc3cc(N4OCC[C@@H]4c4ccccc4)ncn3)c(OC)c2)CC1` [Example 98, (R)—N-(4-(4-(diethylamino)piperidin-1-yl)-2-methoxyphenyl)-6-(3-phenylisoxazolidin-2-yl)pyrimidin-4-amine], the concentration for 50% growth inhibition (GI50) was under 0.05 µM.
Regarding `COc1cc(N2CCN(C3CCN(C)CC3)C[C@H]2C)ccc1Nc1cc(N2OCC[C@@H]2c2ccccc2)ncn1` [Example 99, N-(2-methoxy-4-((R)-2-methyl-4-(1-methylpiperidin-4-yl)piperazin-1-yl)phenyl)-6-((R)-3-phenylisoxazolidin-2-yl)pyrimidin-4-amine], the 50% growth inhibitory concentration (GI50) is under 0.05 µM.
For `COc1cc(N2CCC(N3CCN(C)CC3)CC2)ccc1Nc1cc(N2OCC[C@@H]2c2cccc(C(=O)OC(C)C)c2)ncn1` [Example 100, isopropyl (R)-3-(2-(6-((2-methoxy-4-(4-(4-methylpiperazin-1-yl)piperidin-1-yl)phenyl)amino)pyrimidin-4-yl)isoxazolidin-3-yl)benzoate], the GI50 lay within 0.05 to 0.5 µM.
As for `COc1cc(N2CCN(C3CCN(C)CC3)CC2)ccc1Nc1cc(N2OCC[C@@H]2c2ccccc2)ncn1` [Example 101, (R)—N-(2-methoxy-4-(4-(1-methylpiperidin-4-yl)piperazin-1-yl)phenyl)-6-(3-phenylisoxazolidin-2-yl)pyrimidin-4-amine], the 50% growth inhibitory concentration (GI50) is under 0.05 µM.
As for `Cc1cc(Nc2cc(N3OCC[C@@H]3c3cc(F)ccc3F)ncn2)ccc1N1CCC(N2CCN(C)CC2)CC1` [Example 103, (R)-6-(3-(2,5-difluorophenyl)isoxazolidin-2-yl)-N-(3-methyl-4-(4-(4-methylpiperazin-1-yl)piperidin-1-yl)phenyl)pyrimidin-4-amine], the GI50 was under 0.05 µM.
In the case of `COc1cc(Nc2cc(N3OCC[C@@H]3c3ccc(Cl)cc3F)ncn2)ccc1N1CCC(N2CCN(C)CC2)CC1` [Example 105, (R)-6-(3-(4-chloro-2-fluorophenyl)isoxazolidin-2-yl)-N-(3-methoxy-4-(4-(4-methylpiperazin-1-yl)piperidin-1-yl)phenyl)pyrimidin-4-amine] it was under 0.05 µM.
Turning to `COc1cc(Nc2cc(N3OCC[C@@H]3c3cc(F)ccc3F)ncn2)ccc1N1CCC(N2CCN(C)CC2)CC1` [Example 106, (R)-6-(3-(2,5-difluorophenyl)isoxazolidin-2-yl)-N-(3-methoxy-4-(4-(4-methylpiperazin-1-yl)piperidin-1-yl)phenyl)pyrimidin-4-amine], the GI50 is under 0.05 µM.
`Cc1cc(Nc2cc(N3OCC[C@@H]3c3ccccc3)ncn2)ccc1N1CCN(C)CC1` [Example 107, (R)—N-(3-methyl-4-(4-methylpiperazin-1-yl)phenyl)-6-(3-phenylisoxazolidin-2-yl)pyrimidin-4-amine]: the 50% growth inhibitory concentration (GI50) is under 0.05 µM.
As to `Cc1cc(N2CCOCC2)ccc1Nc1cc(N2OCC[C@@H]2c2ccccc2)ncn1` [Example 108, (R)—N-(2-methyl-4-morpholinophenyl)-6-(3-phenylisoxazolidin-2-yl)pyrimidin-4-amine], the GI50 is under 0.05 µM.
Turning to `CCc1cc(Nc2cc(N3OCC[C@@H]3c3ccccc3)ncn2)c(OC)cc1N1CCC(N2CCN(C)CC2)CC1` [Example 109, (R)—N-(5-ethyl-2-methoxy-4-(4-(4-methylpiperazin-1-yl)piperidin-1-yl)phenyl)-6-(3-phenylisoxazolidin-2-yl)pyrimidin-4-amine], the GI50 is under 0.05 µM.
As for `COc1cc(N2CCOCC2)ccc1Nc1cc(N2OCC[C@@H]2c2ccccc2)ncn1` [Example 110, (R)—N-(2-methoxy-4-morpholinophenyl)-6-(3-phenylisoxazolidin-2-yl)pyrimidin-4-amine], the GI50 was under 0.05 µM.
In the case of `COc1cc(N2CCC(N3CCN(C)CC3)CC2)ccc1Nc1cc(N2OCC[C@@H]2c2ccccc2)nc(N)n1` [Example 111, (R)—N4-(2-methoxy-4-(4-(4-methylpiperazin-1-yl)piperidin-1-yl)phenyl)-6-(3-phenylisoxazolidin-2-yl)pyrimidin-2,4-diamine] it was 0.05 to 0.5 µM.
Consider `COc1cc(N2CCC(N3CCN(C)CC3)CC2)ccc1Nc1ncnc(N2OCC[C@@H]2c2ccccc2)n1` [Example 112, (R)—N-(2-methoxy-4-(4-(4-methylpiperazin-1-yl)piperidin-1-yl)phenyl)-4-(3-phenylisoxazolidin-2-yl)-1,3,5-triazin-2-amine], for which the GI50 was in the range of 0.05 to 0.5 µM.
As for `COc1cc(NC2CCN(C)CC2)ccc1Nc1cc(N2OCC[C@@H]2c2ccccc2)ncn1` [Example 113, (R)-2-methoxy-N4-(1-methylpiperidin-4-yl)-N1-(6-(3-phenylisoxazolidin-2-yl)pyrimidin-4-yl)benzene-1,4-diamine], the concentration for 50% growth inhibition (GI50) was under 0.05 µM.
Turning to `COc1cc(N2CCC(N3CCN(C)CC3)CC2)c(C)cc1Nc1cc(N2OCC[C@@H]2c2ccccc2)ncn1` [Example 114, (R)—N-(2-methoxy-5-methyl-4-(4-(4-methylpiperazin-1-yl)piperidin-1-yl)phenyl)-6-(3-phenylisoxazolidin-2-yl)pyrimidin-4-amine], the 50% growth inhibitory concentration (GI50) was under 0.05 µM.
In the case of `COc1cc(N2CCC(N3CCC(N(C)C)CC3)CC2)ccc1Nc1cc(N2OCC[C@@H]2c2ccccc2)ncn1` [Example 115, (R)-1′-(3-methoxy-4-((6-(3-phenylisoxazolidin-2-yl)pyrimidin-4-yl)amino)phenyl)-N,N-dimethyl-[1,4′-bipiperidin]-4-amine], the GI50 was under 0.05 µM.
As to `CCN1C[C@H]2C[C@@H]1CN2C1CCN(c2ccc(Nc3cc(N4OCC[C@@H]4c4ccccc4)ncn3)c(OC)c2)CC1` [Example 116, N-(4-(4-((1R,4R)-5-ethyl-2,5-diazabicyclo[2.2.1]heptan-2-yl)piperidin-1-yl)-2-methoxyphenyl)-6-((R)-3-phenylisoxazolidin-2-yl)pyrimidin-4-amine], the GI50 was under 0.05 µM.
Turning to `CCc1cc(Nc2cc(N3OCC[C@@H]3c3ccccc3)ncn2)ccc1N1CCC(N2CCN(C)CC2)CC1` [Example 117, (R)—N-(3-ethyl-4-(4-(4-methylpiperazin-1-yl)piperidin-1-yl)phenyl)-6-(3-phenylisoxazolidin-2-yl)pyrimidin-4-amine], the GI50 was under 0.05 µM.
